# From PMC3606823 (Journal of biomolecular screening, 2012)
# Like-named read-outs stand apart in the source and are kept apart here.
# Assays:
# human DDAH1 [1] = biological target: T1, human DDAH1 (Homo sapiens, UniProt O94760); assay: Colorimetric L-citrulline assay with ADMA as substrate; assay type: biochemical
# [2] = test system: primary microvascular endothelial cells (HMVECs); assay: L-citrulline assay in cell lysates; assay type: cell-based; details: 1 mM L-Arginine for 24 hours vs vehicle, p<0.05
# human DDAH1 [3] = biological target: T1, human DDAH1; assay: Secondary fluorimetric CPM assay with SMTC as substrate; assay type: biochemical; details: for IC50: inhibition of human DDAH1, CPM assay, 30 nM DDAH, 100 μM SMTC; for time-dependent inhibition (mode of inhibition): 50 μM compound, 30 nM enzyme, fluorometric CPM assay; for confirmation as DDAH inhibitor in the validation assay: known DDAH inhibitors
# human DDAH1 [4] = biological target: T1, human DDAH1; details: cited from earlier work
# DDAH = details: enzyme isolated from rat kidney homogenates; cited from earlier work
# [5] = screening with recombinant human DDAH1, assay format not given
# T1 sequence (O94760 whole entry): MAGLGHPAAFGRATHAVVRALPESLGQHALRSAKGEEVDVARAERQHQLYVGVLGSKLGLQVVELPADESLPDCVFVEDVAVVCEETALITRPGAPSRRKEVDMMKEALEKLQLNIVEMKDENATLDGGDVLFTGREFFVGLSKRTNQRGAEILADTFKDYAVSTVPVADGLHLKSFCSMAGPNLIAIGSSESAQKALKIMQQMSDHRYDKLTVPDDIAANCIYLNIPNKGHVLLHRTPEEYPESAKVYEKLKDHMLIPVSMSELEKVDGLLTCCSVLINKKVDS
smiles,measurement,setting,value
"CN(C)C(N)=NCCC[C@H](N)C(=O)O [ADMA, Asymmetric Dimethylarginine]",Km,human DDAH1 [1],180 µM
same,kcat,"human DDAH1 [1]; ADMA as substrate, 0.3 μM DDAH, 500 μM ADMA, 4 hours at 37°C",~ 0.7 min^−1
Cn1c(=O)c2[nH]cnc2n(C)c1=O.[CH2-]C(Cc1cccc2cc(C(=O)O)c(=O)oc12)OC.[Hg+2].[OH-] (centres unmarked) [Cumertilin],inhibition,"human DDAH1 [1]; at 25μM, screening with recombinant human DDAH1",100%
N=C(N)NCCC[C@H](N)C(=O)O [L-Arginine],amount of intracellular L-citrulline,[2],increased the amount of intracellular L-citrulline significantly
CN=c1nc(-c2ccccc2)n(-c2ccccc2)s1 [SCH-202676],IC50,human DDAH1 [3],13300 nM
"CSC(N)=NCCC[C@H](N)C(=O)O [SMTC, S-methyl-L-thiocitrulline]",kcat,human DDAH1 [4]; SMTC as substrate at 100 μM,~ 1 min^−1
same,Km,human DDAH1 [4]; SMTC as substrate,1 µM
C[CH2][Hg][S]c1ccccc1C(=O)[O-].[Na+] [Thimerosal],IC50,human DDAH1 [1]; [5],460 nM
"O=C(O)c1cc[c]([Hg][Cl])cc1 [chloromercuribenzoate, 4-chloromercuribenzoic acid]",time-dependent inhibition (mode of inhibition),human DDAH1 [3],progressive inhibition
same,confirmation as DDAH inhibitor in the validation assay,human DDAH1 [3],confirmed
same,sensitivity of the enzyme to the compound,DDAH,sensitive
O=c1c2ccccc2[se]n1-c1ccccc1 [ebselen],confirmation as DDAH inhibitor in the validation assay,human DDAH1 [3],confirmed
same,IC50,human DDAH1 [1],3900 nM
[Cl][Hg][Cl] [mercury chloride],sensitivity of the enzyme to the compound,DDAH,sensitive
CC(=O)[O][Hg][c]1ccccc1 [phenylmercuric acetate],time-dependent inhibition (mode of inhibition),human DDAH1 [3],progressive inhibition
same,IC50,human DDAH1 [3],< 780 nM
same,IC50,human DDAH1 [1]; [5],< 780 nM
